In ChEMBL document CHEMBL1123022, “S-(nitrocarbobenzoxy)glutathiones: potent competitive inhibitors of mammalian glyoxalase II” (J Med Chem, 1985):

What was measured:
[1] = molecular target: Hydroxyacylglutathione hydrolase, mitochondrial (Rattus norvegicus, UniProt O35952); assay: Binding affinity towards rat liver glyoxalase II
[2] = molecular target: Hydroxyacylglutathione hydrolase, mitochondrial (Rattus norvegicus) (UniProt O35952); assay: […] inhibitory activity against rat liver glyoxalase II
[3] = molecular target: T1, Lactoylglutathione lyase (Rattus norvegicus) (UniProt Q6P7Q4); assay: […] inhibitory activity against rat liver glyoxalase I
T1 sequence (whole entry): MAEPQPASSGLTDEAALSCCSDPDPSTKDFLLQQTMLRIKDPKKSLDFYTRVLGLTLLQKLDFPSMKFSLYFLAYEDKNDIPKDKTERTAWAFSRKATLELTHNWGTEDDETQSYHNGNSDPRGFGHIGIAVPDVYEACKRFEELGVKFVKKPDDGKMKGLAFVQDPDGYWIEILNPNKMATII

Row | Ki [1] [µM] | [I] 0.5 [2] [µM] | [I] 0.5 [3] [µM] | Structure (SMILES)
1 | 65 | 165 | – | NC(CCC(=O)NC(CSC(=O)OCc1ccccc1)C(=O)NCC(=O)O)C(=O)O (centres undefined)
2 | 6.5 | 12 | 925 | NC(CCC(=O)NC(CSC(=O)OCc1ccc([N+](=O)[O-])cc1)C(=O)NCC(=O)O)C(=O)O (centres undefined)
3 | 9 | 15 | – | NC(CCC(=O)NC(CSC(=O)OCc1cccc([N+](=O)[O-])c1)C(=O)NCC(=O)O)C(=O)O (centres undefined)
4 | 15 | 20 | – | NC(CCC(=O)NC(CSC(=O)OCc1ccccc1[N+](=O)[O-])C(=O)NCC(=O)O)C(=O)O (centres undefined)
